Test results: US5733719A, “Method of making an assay compound” (priority 1995, dated 1998)

How the values were obtained:
Lymphs = test: Peptidases to distinguish leukemia from non-leukemia, lymphocytes; type: cell-based, human; set-up: unit not given here
Text: (§1) Artificial intelligence was used to analyze data of cellular enzyme functions, and determine normal and disease states. Peptidases were used to distinguish leukemia from non-leukemia (output pattern). For input patterns lymphocyte and granulocyte cell types were used with aminopeptidases, cathepsins and dipeptidylpeptidase enzyme activities. In this Example, illustrated in Tables 6A-6C, three normals and three leukemia patients were used as known output patterns for the neural network to learn (in practice, the larger the learning set the more accurate unknown prediction will be). Unknowns were then presented to the learned algorithm as shown in the test case examples. Clinical diagnosis was confirmed by physicians. The trained neural network was able to correctly classify the leukemia from the non-leukemia.

Grans = test: Peptidases to distinguish leukemia from non-leukemia, granulocytes; type: cell-based, human; set-up: unit not given here
Text: as §1

C[C@H](N)C(=O)Nc1ccc2c(c1)Oc1cc(NC(=O)[C@H](C)N)ccc1C21OC(=O)c2ccccc21 [ALA, (Ala)2 Rho 110]
enzyme activity (Lymphs; J4 11/21/91 acute leuk.): 86.00
enzyme activity (Lymphs; J4 12/2/91 AL): 68.10
enzyme activity (Lymphs; J4 12/3/91 acute leuk.): 74.64
enzyme activity (Lymphs; J5 11/27/91 AML): 92.44
enzyme activity (Lymphs; J19 11/27/91 CLL): 47.78
enzyme activity (Lymphs; J22 12/2/91 AML): 84.42
enzyme activity (Lymphs; J22 12/9/91 AML): 83.48
enzyme activity (Lymphs; N99° normal): 91.07
enzyme activity (Lymphs; N191 normal): 95.72
enzyme activity (Lymphs; N192 normal): 103.31
enzyme activity (Lymphs; N193 normal): 100.50
enzyme activity (Lymphs; N194 normal): 97.02
enzyme activity (Lymphs; N195 normal): 118.81
enzyme activity (Lymphs; N197 normal): 96.36
enzyme activity (Lymphs; N200 normal): 101.38
enzyme activity (Lymphs; N201 normal): 106.72
enzyme activity (Lymphs; N202 normal): 118.37
enzyme activity (Lymphs; N206 normal): 122.71
enzyme activity (Lymphs; P68 tachycardia): 1471.10
enzyme activity (Lymphs; P69 pancreatic CA): 130.34
enzyme activity (Lymphs; P70 cirrhosis/hemobilia): 141.87
enzyme activity (Lymphs; P71 ac. pyelonephritis): 109.26
enzyme activity (Grans; J4 11/21/91 acute leuk.): 193.43
enzyme activity (Grans; J4 12/2/91 AL): 139.53
enzyme activity (Grans; J4 12/3/91 acute leuk.): 138.89
enzyme activity (Grans; J5 11/27/91 AML): 194.85
enzyme activity (Grans; J19 11/27/91 CLL): 143.11
enzyme activity (Grans; J22 12/2/91 AML): 157.12
enzyme activity (Grans; J22 12/9/91 AML): 157.48
enzyme activity (Grans; N99° normal): 157.30
enzyme activity (Grans; N191 normal): 177.32
enzyme activity (Grans; N192 normal): 154.84
enzyme activity (Grans; N193 normal): 178.64
enzyme activity (Grans; N194 normal): 164.00
enzyme activity (Grans; N195 normal): 221.28
enzyme activity (Grans; N197 normal): 188.20
enzyme activity (Grans; N200 normal): 171.06
enzyme activity (Grans; N201 normal): 206.06
enzyme activity (Grans; N202 normal): 201.17
enzyme activity (Grans; N206 normal): 232.57
enzyme activity (Grans; P68 tachycardia): 276.07
enzyme activity (Grans; P69 pancreatic CA): 204.02
enzyme activity (Grans; P70 cirrhosis/hemobilia): 236.23
enzyme activity (Grans; P71 ac. pyelonephritis): 185.37

NCC(=O)N1CCC[C@H]1C(=O)Nc1ccc2c(c1)Oc1cc(NC(=O)[C@@H]3CCCN3C(=O)CN)ccc1C21OC(=O)c2ccccc21 [GP]
enzyme activity (Lymphs; J4 11/21/91 acute leuk.): 2.72
enzyme activity (Lymphs; J4 12/2/91 AL): 3.80
enzyme activity (Lymphs; J4 12/3/91 acute leuk.): 4.17
enzyme activity (Lymphs; J5 11/27/91 AML): 3.40
enzyme activity (Lymphs; J19 11/27/91 CLL): 1.73
enzyme activity (Lymphs; J22 12/2/91 AML): 1.73
enzyme activity (Lymphs; J22 12/9/91 AML): 3.01
enzyme activity (Lymphs; N99° normal): 5.55
enzyme activity (Lymphs; N191 normal): 4.14
enzyme activity (Lymphs; N192 normal): 3.00
enzyme activity (Lymphs; N193 normal): 3.00
enzyme activity (Lymphs; N194 normal): 5.22
enzyme activity (Lymphs; N195 normal): 5.24
enzyme activity (Lymphs; N197 normal): 5.97
enzyme activity (Lymphs; N200 normal): 5.38
enzyme activity (Lymphs; N201 normal): 6.53
enzyme activity (Lymphs; N202 normal): 6.61
enzyme activity (Lymphs; N206 normal): 7.09
enzyme activity (Lymphs; P68 tachycardia): 5.92
enzyme activity (Lymphs; P69 pancreatic CA): 6.80
enzyme activity (Lymphs; P70 cirrhosis/hemobilia): 6.68
enzyme activity (Lymphs; P71 ac. pyelonephritis): 3.55
enzyme activity (Grans; J4 11/21/91 acute leuk.): 10.75
enzyme activity (Grans; J4 12/2/91 AL): 11.08
enzyme activity (Grans; J4 12/3/91 acute leuk.): 1.28
enzyme activity (Grans; J5 11/27/91 AML): 8.95
enzyme activity (Grans; J19 11/27/91 CLL): 1.39
enzyme activity (Grans; J22 12/2/91 AML): 13.98
enzyme activity (Grans; J22 12/9/91 AML): 11.52
enzyme activity (Grans; N99° normal): 13.41
enzyme activity (Grans; N191 normal): 11.20
enzyme activity (Grans; N192 normal): 11.22
enzyme activity (Grans; N193 normal): 8.87
enzyme activity (Grans; N194 normal): 12.49
enzyme activity (Grans; N195 normal): 13.31
enzyme activity (Grans; N197 normal): 15.85
enzyme activity (Grans; N200 normal): 12.74
enzyme activity (Grans; N201 normal): 15.92
enzyme activity (Grans; N202 normal): 14.44
enzyme activity (Grans; N206 normal): 17.96
enzyme activity (Grans; P68 tachycardia): 16.08
enzyme activity (Grans; P69 pancreatic CA): 16.21
enzyme activity (Grans; P70 cirrhosis/hemobilia): 16.42
enzyme activity (Grans; P71 ac. pyelonephritis): 11.07

CC(C)C[C@H](N)C(=O)NCC(=O)Nc1ccc2c(c1)Oc1cc(NC(=O)CNC(=O)[C@@H](N)CC(C)C)ccc1C21OC(=O)c2ccccc21 [LG]
enzyme activity (Lymphs; J4 11/21/91 acute leuk.): 0.16
enzyme activity (Lymphs; J4 12/2/91 AL): 0.18
enzyme activity (Lymphs; J4 12/3/91 acute leuk.): 0.19
enzyme activity (Lymphs; J5 11/27/91 AML): 0.23
enzyme activity (Lymphs; J19 11/27/91 CLL): 0.02
enzyme activity (Lymphs; J22 12/2/91 AML): 0.02
enzyme activity (Lymphs; J22 12/9/91 AML): 0.61
enzyme activity (Lymphs; N99° normal): 0.85
enzyme activity (Lymphs; N191 normal): 2.42
enzyme activity (Lymphs; N192 normal): 3.45
enzyme activity (Lymphs; N193 normal): 1.56
enzyme activity (Lymphs; N194 normal): 2.06
enzyme activity (Lymphs; N195 normal): 1.93
enzyme activity (Lymphs; N197 normal): 1.79
enzyme activity (Lymphs; N200 normal): 1.55
enzyme activity (Lymphs; N201 normal): 1.57
enzyme activity (Lymphs; N202 normal): 1.28
enzyme activity (Lymphs; N206 normal): 3.12
enzyme activity (Lymphs; P68 tachycardia): 0.78
enzyme activity (Lymphs; P69 pancreatic CA): 2.00
enzyme activity (Lymphs; P70 cirrhosis/hemobilia): 0.79
enzyme activity (Lymphs; P71 ac. pyelonephritis): 0.68
enzyme activity (Grans; J4 11/21/91 acute leuk.): 0.85
enzyme activity (Grans; J4 12/2/91 AL): 0.79
enzyme activity (Grans; J4 12/3/91 acute leuk.): 1.06
enzyme activity (Grans; J5 11/27/91 AML): 2.51
enzyme activity (Grans; J19 11/27/91 CLL): 36.35
enzyme activity (Grans; J22 12/2/91 AML): 1.56
enzyme activity (Grans; J22 12/9/91 AML): 1.94
enzyme activity (Grans; N99° normal): 2.022
enzyme activity (Grans; N191 normal): 5.37
enzyme activity (Grans; N192 normal): 6.78
enzyme activity (Grans; N193 normal): 3.65
enzyme activity (Grans; N194 normal): 3.52
enzyme activity (Grans; N195 normal): 4.11
enzyme activity (Grans; N197 normal): 4.41
enzyme activity (Grans; N200 normal): 3.40
enzyme activity (Grans; N201 normal): 3.14
enzyme activity (Grans; N202 normal): 2.70
enzyme activity (Grans; N206 normal): 6.01
enzyme activity (Grans; P68 tachycardia): 2.52
enzyme activity (Grans; P69 pancreatic CA): 3.53
enzyme activity (Grans; P70 cirrhosis/hemobilia): 2.20
enzyme activity (Grans; P71 ac. pyelonephritis): 4.00

NCCCC[C@H](N)C(=O)Nc1ccc2c(c1)Oc1cc(NC(=O)[C@@H](N)CCCCN)ccc1C21OC(=O)c2ccccc21 [LYS, (H--L--Lys)2 Rho 110-4TFA]
enzyme activity (Lymphs; J4 11/21/91 acute leuk.): 0.77
enzyme activity (Lymphs; J4 12/2/91 AL): 1.81
enzyme activity (Lymphs; J4 12/3/91 acute leuk.): 1.64
enzyme activity (Lymphs; J5 11/27/91 AML): 5.71
enzyme activity (Lymphs; J19 11/27/91 CLL): 0.98
enzyme activity (Lymphs; J22 12/2/91 AML): 0.74
enzyme activity (Lymphs; J22 12/9/91 AML): 1.20
enzyme activity (Lymphs; N99° normal): 0.33
enzyme activity (Lymphs; N191 normal): 1.18
enzyme activity (Lymphs; N192 normal): 0.56
enzyme activity (Lymphs; N193 normal): 0.52
enzyme activity (Lymphs; N194 normal): 0.93
enzyme activity (Lymphs; N195 normal): 1.07
enzyme activity (Lymphs; N197 normal): 0.70
enzyme activity (Lymphs; N200 normal): 0.90
enzyme activity (Lymphs; N201 normal): 1.05
enzyme activity (Lymphs; N202 normal): 0.71
enzyme activity (Lymphs; N206 normal): 1.65
enzyme activity (Lymphs; P68 tachycardia): 1.51
enzyme activity (Lymphs; P69 pancreatic CA): 1.22
enzyme activity (Lymphs; P70 cirrhosis/hemobilia): 1.02
enzyme activity (Lymphs; P71 ac. pyelonephritis): 0.91
enzyme activity (Grans; J4 11/21/91 acute leuk.): 3.01
enzyme activity (Grans; J4 12/2/91 AL): 4.09
enzyme activity (Grans; J4 12/3/91 acute leuk.): 3.19
enzyme activity (Grans; J5 11/27/91 AML): 14.86
enzyme activity (Grans; J19 11/27/91 CLL): 4.41
enzyme activity (Grans; J22 12/2/91 AML): 1.41
enzyme activity (Grans; J22 12/9/91 AML): 1.90
enzyme activity (Grans; N99° normal): 0.95
enzyme activity (Grans; N191 normal): 1.20
enzyme activity (Grans; N192 normal): 1.20
enzyme activity (Grans; N193 normal): 1.43
enzyme activity (Grans; N194 normal): 1.56
enzyme activity (Grans; N195 normal): 2.53
enzyme activity (Grans; N197 normal): 1.59
enzyme activity (Grans; N200 normal): 1.46
enzyme activity (Grans; N201 normal): 2.06
enzyme activity (Grans; N202 normal): 13.22
enzyme activity (Grans; N206 normal): 3.11
enzyme activity (Grans; P68 tachycardia): 3.09
enzyme activity (Grans; P69 pancreatic CA): 2.14
enzyme activity (Grans; P70 cirrhosis/hemobilia): 2.33
enzyme activity (Grans; P71 ac. pyelonephritis): 4.17
